Active and inactive are the calls of the source.
What was measured:
[1] = target: T1, RNA-binding protein pos-1 (Caenorhabditis elegans, UniProt G5EF15); assay: inhibitors of POS-1/mex-3 RNA binding, dose response, biochemical, fluorescence polarization (AID 1964);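 note: purified POS-1 fused to maltose binding protein made in E. coli; potency of compounds blocking POS-1 binding to fluorescent RNA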
T1 sequence (G5EF15 whole entry): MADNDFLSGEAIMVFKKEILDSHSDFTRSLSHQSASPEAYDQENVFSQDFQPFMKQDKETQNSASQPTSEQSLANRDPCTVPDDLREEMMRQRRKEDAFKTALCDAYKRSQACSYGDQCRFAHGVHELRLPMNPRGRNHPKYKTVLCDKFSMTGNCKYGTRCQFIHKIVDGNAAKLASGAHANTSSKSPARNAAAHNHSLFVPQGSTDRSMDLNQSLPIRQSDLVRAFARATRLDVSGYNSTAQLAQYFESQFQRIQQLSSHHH

[2] = target: T2, Zinc finger protein mex-5 (Caenorhabditis elegans, UniProt Q9XUB2); assay: MEX-5/TCR-2 RNA interaction inhibitors, dose response, biochemical, C. elegans, fluorescence polarization (AID 1960)
T2 sequence (Q9XUB2 whole entry): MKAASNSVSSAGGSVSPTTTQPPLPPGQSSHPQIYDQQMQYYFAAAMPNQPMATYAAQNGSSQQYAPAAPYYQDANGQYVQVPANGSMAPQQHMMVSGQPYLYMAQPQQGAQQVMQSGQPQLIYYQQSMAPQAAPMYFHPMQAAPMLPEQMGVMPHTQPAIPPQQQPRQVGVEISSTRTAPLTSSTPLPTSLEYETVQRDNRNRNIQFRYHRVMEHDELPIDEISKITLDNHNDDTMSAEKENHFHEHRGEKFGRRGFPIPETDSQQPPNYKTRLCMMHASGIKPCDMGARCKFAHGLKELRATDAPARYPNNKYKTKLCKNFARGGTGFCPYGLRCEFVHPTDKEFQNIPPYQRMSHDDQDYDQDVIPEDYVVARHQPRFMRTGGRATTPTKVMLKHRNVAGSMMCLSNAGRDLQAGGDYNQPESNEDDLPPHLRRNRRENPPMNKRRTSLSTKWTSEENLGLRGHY

[3] = Shn3 3'UTR reporter inhibitors, dose response, cell-based, Clone20 osteoblasts, firefly luciferase, cherry-picked (AID 624132); format: functional;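 note: firefly luciferase luminescence from reporter carrying the Shn3 3'UTR in osteoblasts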
[4] = control 3'UTR Renilla luciferase suppression, dose response, counter-screen for Shn3 inhibitor project, cell-based, Clone20-Shn3RL, cherry-picked (AID 624133); format: functional
[5] = HepG2 cell cytotoxicity, dose response, cytotoxicity control for Shn3 inhibitor project, CellTiter-Glo, cherry-picked (AID 624134); format: functional, cell-based
[6] = target: T3, Leucine aminopeptidase (Plasmodium falciparum 3D7, UniProt Q8IL11); assay: P. falciparum M17LAP inhibitors, primary screen, biochemical, fluorogenic H-Leu-NHMec substrate, 1536-well (AID 1619); format: functional
T3 sequence (Q8IL11 whole entry): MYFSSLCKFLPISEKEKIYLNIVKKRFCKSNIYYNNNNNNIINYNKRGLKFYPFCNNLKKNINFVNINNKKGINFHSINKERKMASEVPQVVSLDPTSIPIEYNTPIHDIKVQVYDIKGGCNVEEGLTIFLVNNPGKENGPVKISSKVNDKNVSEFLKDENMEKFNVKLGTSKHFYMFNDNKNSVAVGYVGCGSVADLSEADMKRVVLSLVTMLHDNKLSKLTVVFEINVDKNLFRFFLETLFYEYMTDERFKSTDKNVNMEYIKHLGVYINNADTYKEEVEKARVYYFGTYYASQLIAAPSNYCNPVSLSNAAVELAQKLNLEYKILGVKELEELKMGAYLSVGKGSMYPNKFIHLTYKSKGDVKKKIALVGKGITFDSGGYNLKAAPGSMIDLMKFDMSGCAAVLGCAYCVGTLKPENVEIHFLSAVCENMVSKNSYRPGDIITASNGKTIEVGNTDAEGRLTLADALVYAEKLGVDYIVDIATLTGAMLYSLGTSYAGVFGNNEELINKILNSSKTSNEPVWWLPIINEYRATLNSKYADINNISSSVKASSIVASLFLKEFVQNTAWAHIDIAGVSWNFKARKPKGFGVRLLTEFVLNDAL

[7] = target: T4, Replicative DNA helicase DnaB (Mycobacterium tuberculosis, UniProt P9WMR3); assay: DnaB intein splicing inhibitors, dose response, biochemical, cell-free fluorescence (AID 449749); format: functional
T4 sequence (P9WMR3 whole entry): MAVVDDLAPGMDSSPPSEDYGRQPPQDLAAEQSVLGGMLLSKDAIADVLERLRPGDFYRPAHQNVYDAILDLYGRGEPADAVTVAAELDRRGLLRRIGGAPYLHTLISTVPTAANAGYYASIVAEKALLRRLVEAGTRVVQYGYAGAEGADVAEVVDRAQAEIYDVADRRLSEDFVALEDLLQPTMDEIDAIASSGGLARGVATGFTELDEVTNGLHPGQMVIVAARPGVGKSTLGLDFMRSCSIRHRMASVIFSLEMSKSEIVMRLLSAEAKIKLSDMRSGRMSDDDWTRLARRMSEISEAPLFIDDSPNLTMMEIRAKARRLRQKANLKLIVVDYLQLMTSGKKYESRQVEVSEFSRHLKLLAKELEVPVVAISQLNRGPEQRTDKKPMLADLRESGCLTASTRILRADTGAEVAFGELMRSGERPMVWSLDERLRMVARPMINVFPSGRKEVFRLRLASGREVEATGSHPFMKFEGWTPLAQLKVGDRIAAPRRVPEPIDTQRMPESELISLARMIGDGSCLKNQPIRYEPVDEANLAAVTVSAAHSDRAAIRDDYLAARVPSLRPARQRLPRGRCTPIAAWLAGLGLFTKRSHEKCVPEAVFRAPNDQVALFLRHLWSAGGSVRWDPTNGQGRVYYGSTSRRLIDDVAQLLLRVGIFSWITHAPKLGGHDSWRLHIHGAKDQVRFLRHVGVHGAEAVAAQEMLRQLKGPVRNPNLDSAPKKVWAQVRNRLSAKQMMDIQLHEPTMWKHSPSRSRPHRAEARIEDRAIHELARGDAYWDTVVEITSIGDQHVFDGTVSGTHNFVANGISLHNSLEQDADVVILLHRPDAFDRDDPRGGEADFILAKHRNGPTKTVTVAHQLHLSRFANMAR

[8] = C. albicans growth with fluconazole, confirmation, fluorescence, retest (AID 2467); format: functional, cell-based
[9] = target: T5, Protein RecA (Mycobacterium tuberculosis, UniProt P9WHJ3); assay: Fluorescence Cell-Free Homogeneous Dose Retest to Identify Inhibitors of RecA-Intein Splicing Activity. [Related pubchem assays (depositor defined):AID2097, AID2223, AID489010, AID492950]; format: functional
T5 sequence (P9WHJ3 whole entry): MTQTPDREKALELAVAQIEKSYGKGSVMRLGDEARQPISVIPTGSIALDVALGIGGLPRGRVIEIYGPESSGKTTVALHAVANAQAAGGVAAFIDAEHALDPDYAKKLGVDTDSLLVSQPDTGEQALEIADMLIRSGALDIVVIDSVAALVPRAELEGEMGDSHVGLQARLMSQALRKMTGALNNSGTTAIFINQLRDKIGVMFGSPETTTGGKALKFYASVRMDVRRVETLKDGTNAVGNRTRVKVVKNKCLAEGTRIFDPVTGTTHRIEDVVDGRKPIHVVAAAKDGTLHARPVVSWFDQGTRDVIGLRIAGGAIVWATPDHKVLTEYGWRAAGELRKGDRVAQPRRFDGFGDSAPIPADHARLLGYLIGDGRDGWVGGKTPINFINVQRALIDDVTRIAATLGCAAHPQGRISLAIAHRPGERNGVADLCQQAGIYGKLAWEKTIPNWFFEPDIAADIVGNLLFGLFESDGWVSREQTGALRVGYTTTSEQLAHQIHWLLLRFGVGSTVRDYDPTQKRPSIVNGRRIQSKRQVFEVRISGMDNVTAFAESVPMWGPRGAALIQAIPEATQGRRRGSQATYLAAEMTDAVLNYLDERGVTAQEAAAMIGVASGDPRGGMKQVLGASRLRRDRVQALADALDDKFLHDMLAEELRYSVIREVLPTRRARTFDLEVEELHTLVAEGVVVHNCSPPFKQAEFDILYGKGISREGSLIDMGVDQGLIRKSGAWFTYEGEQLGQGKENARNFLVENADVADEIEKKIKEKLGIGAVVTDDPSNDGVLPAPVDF

[10] = NIH-3T3 fibroblast cytotoxicity, dose response, cytotoxicity control, cell-based, fluorescence, Alamar Blue, secondary assay (AID 2327); format: functional;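 note: NIH-3T3 mouse fibroblasts cultured with fluconazole at 8 µg/mL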
[11] = target: Heat shock protein HSP 90-alpha (Homo sapiens, UniProt P07900); format: functional, organism-based
[12] = target: Induced myeloid leukemia cell differentiation protein Mcl-1 (Homo sapiens, UniProt Q07820); format: functional
[13] = target: Eukaryotic translation initiation factor 4E (Mus musculus, UniProt P63073); assay: eIF4E–eIF4G protein interaction inhibitors, dose response, biochemical, TR-FRET (AID 855); format: functional;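 note: potency for disrupting eIF4E binding to eIF4GI seen as loss of FRET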
[14] = target: Glyceraldehyde-3-phosphate dehydrogenase (Homo sapiens, UniProt P04406)
[15] = test system: Streptococcus sp. 'group A'; assay: growth inhibition of control SK(-) GAS strain, dose response, counter-screen for streptokinase expression inhibitor project, luminescence, kanamycin, BacTiterGlo, confirmation (AID 1900); format: functional, organism-based; settings: read-out: EC50
[16] = target: T6, Streptokinase A (Streptococcus pyogenes serotype M1, UniProt P10520); assay: S. pyogenes streptokinase expression inhibitors, potency, dose response, plasminogen activation absorbance, OD405 (AID 1914); format: functional, Streptococcus pyogenes M1 GAS;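 note: secreted streptokinase activity via plasminogen activation per viability signal from cell pellet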
T6 sequence (P10520 whole entry): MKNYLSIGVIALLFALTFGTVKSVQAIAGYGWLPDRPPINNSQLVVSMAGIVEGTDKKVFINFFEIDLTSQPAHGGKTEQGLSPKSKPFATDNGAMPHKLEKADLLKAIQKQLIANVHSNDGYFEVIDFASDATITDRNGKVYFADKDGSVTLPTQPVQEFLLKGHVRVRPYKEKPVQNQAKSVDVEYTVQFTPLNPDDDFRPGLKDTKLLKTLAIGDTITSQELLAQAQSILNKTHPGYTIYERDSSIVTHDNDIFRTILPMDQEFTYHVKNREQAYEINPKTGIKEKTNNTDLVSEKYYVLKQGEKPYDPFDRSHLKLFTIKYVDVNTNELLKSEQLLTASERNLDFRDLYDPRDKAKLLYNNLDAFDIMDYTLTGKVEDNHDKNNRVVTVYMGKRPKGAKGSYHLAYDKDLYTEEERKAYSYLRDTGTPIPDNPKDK

[17] = test system: Streptococcus; assay: Group A Streptococcus viability loss, dose response, counter-screen for streptokinase expression inhibitor project, luminescence, BacTiterGlo (AID 1915); format: functional, organism-based;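 note: potency for reduction of bacterial viability or growth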

Glyceraldehyde-3-phosphate dehydrogenase, sequence (P04406 whole entry): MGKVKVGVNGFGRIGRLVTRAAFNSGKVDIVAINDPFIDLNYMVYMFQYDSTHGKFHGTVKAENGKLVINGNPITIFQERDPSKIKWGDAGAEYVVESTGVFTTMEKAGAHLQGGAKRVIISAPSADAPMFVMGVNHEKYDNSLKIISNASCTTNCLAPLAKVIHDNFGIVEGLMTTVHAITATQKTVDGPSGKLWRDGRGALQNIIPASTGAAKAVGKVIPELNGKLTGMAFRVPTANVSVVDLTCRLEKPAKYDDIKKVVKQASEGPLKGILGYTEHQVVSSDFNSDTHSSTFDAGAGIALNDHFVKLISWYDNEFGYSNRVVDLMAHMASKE
Eukaryotic translation initiation factor 4E, sequence (P63073 whole entry): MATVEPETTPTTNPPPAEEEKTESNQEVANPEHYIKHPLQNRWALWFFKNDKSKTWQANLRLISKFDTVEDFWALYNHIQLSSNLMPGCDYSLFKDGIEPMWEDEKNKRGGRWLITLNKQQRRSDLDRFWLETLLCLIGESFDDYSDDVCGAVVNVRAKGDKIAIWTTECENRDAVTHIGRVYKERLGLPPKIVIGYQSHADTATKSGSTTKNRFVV
Induced myeloid leukemia cell differentiation protein Mcl-1, sequence (Q07820 whole entry): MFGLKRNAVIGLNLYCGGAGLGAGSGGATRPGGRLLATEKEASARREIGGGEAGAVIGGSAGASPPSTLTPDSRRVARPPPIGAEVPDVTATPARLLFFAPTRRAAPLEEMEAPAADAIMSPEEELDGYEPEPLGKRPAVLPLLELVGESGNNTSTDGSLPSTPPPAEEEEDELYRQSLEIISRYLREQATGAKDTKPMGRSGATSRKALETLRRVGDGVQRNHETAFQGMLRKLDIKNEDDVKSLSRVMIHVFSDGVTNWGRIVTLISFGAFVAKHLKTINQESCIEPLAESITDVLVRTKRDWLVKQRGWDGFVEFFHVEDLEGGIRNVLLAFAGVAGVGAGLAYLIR

CN(C)c1ccc(-c2nnc(-c3ccc(S(=O)(=O)C(F)F)cc3)o2)cc1
EC50 [1]: 55.7 µM (inconclusive)
EC50 [2]: 31.4 µM (inconclusive)

CC(C)C[C@H]1CN=C(N(C)C)N1CC1CCCCCC1
AC50 [3]: 5.03 µM (active)
AC50 [4]: 9.97 µM (active)
AC50 [5]: > 70 µM (inactive)

COc1ccc(CC(CC(=O)O)C(=O)Nc2ccc(OC)cc2)cc1 (stereo not given)
IC50 [6]: 8.96 µM (active)

CN1CCN(C(c2ccc(Br)cc2)c2cc(Cl)c3cccnc3c2O)CC1 (stereo not given)
AC50 [7]: 14.3 µM (active)
EC50 [8]: 492 nM (active)
AC50 [3]: 3.61 µM (active)
EC50 [9]: 3.22 µM (active)
EC50 [10]: 4.78 µM (inconclusive)
AC50 [11]: 609 nM (active)
AC50 [4]: 6.28 µM (active)
AC50 [5]: 34.9 µM (active)

O=C(O)CCN1C(=O)/C(=C/c2cn(-c3ccccc3)nc2-c2cccs2)SC1=S
IC50 [6]: 3.05 µM (active)
IC50 [12]: 3.24 µM (not active)
IC50 [13]: 50 µM (inactive)

O=C(O)CSc1cccc2c(SCC(=O)O)cccc12
IC50 [14]: > 100 µM (not active)

CCCN1C=CC(=C/C=C(\C#N)C(=O)OCC)C=C1
IC50 [6]: 91.5 µM (active)

Cc1cc(C(=O)CSc2nc[nH]n2)c(C)n1-c1cccc(S(=O)(=O)N2CCOCC2)c1
IC50 [6]: 22.8 µM (active)

O=C(O)C1CC=CCC1C(=O)NCCc1cccc(Cl)c1 (stereo not given)
IC50 [6]: 11.8 µM (active)

Cc1cc(C)n2nc(SCC(=O)c3cc(C)n(-c4cc(C)on4)c3C)nc2n1
AC50 [3]: 2.46 µM (active)
AC50 [4]: 3.28 µM (active)
AC50 [5]: > 70 µM (inactive)

C=CCOn1c(=O)c(-c2cc3ccccc3o2)[n+]([O-])c2ccccc21
EC50 [1]: 28.3 µM (inconclusive)
EC50 [2]: 69.7 µM (inconclusive)

CC(C)c1c(O)nc(SCC(=O)Nc2ccc3c(c2)CCC3)[nH]c1=O
IC50 [6]: 8.08 µM (active)

CCOC(=O)c1c(NC(=O)C2C3C=CC(CC3)C2C(=O)O)sc(C)c1CC (stereo not given)
IC50 [6]: 13.2 µM (active)

O=C(CSc1ccccn1)Nc1ccc(O)c(C(=O)O)c1
IC50 [14]: > 100 µM (not active)

O=C1C(Cl)=C(N2CCN(C/C=C/c3ccccc3)CC2)C(=O)N1c1ccc(Cl)nc1
IC50 [14]: > 50 µM (inconclusive)

CC1CCN(c2nc3ccccc3nc2C(C#N)C(=O)NC2CCCCC2)CC1 (stereo not given)
EC50 [1]: > 300 µM (not active)
EC50 [15]: 7.52 µM (active)
EC50 [16]: 26.2 µM (active)
EC50 [2]: > 300 µM (not active)
EC50 [17]: 18.3 µM (active)

Cc1c(CN2CCCCC2)c(O)n(CCCO)c(=O)c1C#N
EC50 [1]: > 300 µM (not active)
EC50 [2]: > 300 µM (not active)

CCOC(=O)/C=c1\s/c(=C\c2ccc(C#N)cc2)c(=O)n1CC(=O)NCc1ccco1
EC50 [1]: > 300 µM (not active)
EC50 [2]: > 300 µM (not active)

CC1=NNC(=O)C1CCC(=O)N/N=C(\C)c1ccccc1 (stereo not given)
IC50 [6]: 36.6 µM (active)

Source: ChEMBL document CHEMBL1201862, “PubChem BioAssay data set” (2004)
